pIC50: −log10 of the molar value.
Tests used:
[1] = test system: Capan-1 (K-Ras G12V); test: CellTiter-Glo cell viability assay, 5-day treatment; type: cell-based; details: Homo sapiens, CAPAN-1, 120 h, 5-day treatment; read-out: Capan-1 Cell Viability assay data (K-Ras G12V, IC50)
How it was run: (§1)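 Compounds were dispensed directly onto seeded cells and incubated for 5 days, then plates were equilibrated to room temperature for about 30 minutes before luminescence reading. Signals were expressed as percent of the mean DMSO control and fitted with a four-parameter logistic curve.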

[2] = test system: NCI-H358 (K-Ras G12C); test: as above; type: cell-based; details: Homo sapiens, NCI-H358, 120 h, 5-day treatment; read-out: H358 Cell Viability assay data (K-Ras G12C, IC50)
How it was run: as §1

[3] = target: KRAS G12S (Homo sapiens, UniProt P01116+P62937, G12S); test: Disruption of BRAF RBD interaction with Ras (FRET / MOA assay, with Cyclophilin A); type: biochemical; details: read-out: KRAS G12S FRET data, IC50
Sequence of KRAS G12S (P01116 1-169 isoform P01116-2 G12S limits assumed): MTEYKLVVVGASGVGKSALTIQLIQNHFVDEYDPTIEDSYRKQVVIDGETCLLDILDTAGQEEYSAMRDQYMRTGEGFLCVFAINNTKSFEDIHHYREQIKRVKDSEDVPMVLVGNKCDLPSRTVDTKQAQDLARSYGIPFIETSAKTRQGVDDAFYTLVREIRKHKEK
Sequence of KRAS G12S (P62937 whole entry): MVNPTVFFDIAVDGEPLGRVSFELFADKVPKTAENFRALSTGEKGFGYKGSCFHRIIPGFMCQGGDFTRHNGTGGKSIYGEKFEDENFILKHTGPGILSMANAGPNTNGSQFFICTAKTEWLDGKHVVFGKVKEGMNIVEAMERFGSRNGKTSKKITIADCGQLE
How it was run: (§2)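 First, compounds at a ten-point threefold dilution series (highest final concentration 30 μM) were incubated with nucleotide-loaded K-Ras, Cyclophilin A and BRAF RBD for 3 h at 25 °C. Next, detection antibodies were added for 1.5 h. Finally, IC50 was calculated from TR-FRET ratio decreases against DMSO controls.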

[4] = target: KRAS G13C (Homo sapiens, UniProt P01116+P62937, G13C); test: as above; type: biochemical; details: read-out: KRAS G13C FRET data, IC50
Sequence of KRAS G13C (P01116 1-169 isoform P01116-2 G13C): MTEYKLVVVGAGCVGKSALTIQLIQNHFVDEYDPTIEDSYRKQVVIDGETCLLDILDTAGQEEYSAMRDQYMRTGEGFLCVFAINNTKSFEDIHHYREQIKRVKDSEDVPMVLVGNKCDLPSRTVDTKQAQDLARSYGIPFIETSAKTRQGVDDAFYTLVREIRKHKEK
Sequence of KRAS G13C (P62937 whole entry): as the sequence (P62937 whole entry) above
How it was run: as §2

[5] = target: KRAS G12D (Homo sapiens, UniProt P01116+P62937, G12D); test: as above; type: biochemical; details: read-out: KRAS G12D FRET data, IC50
Sequence of KRAS G12D (P01116 1-169 isoform P01116-2 G12D limits assumed): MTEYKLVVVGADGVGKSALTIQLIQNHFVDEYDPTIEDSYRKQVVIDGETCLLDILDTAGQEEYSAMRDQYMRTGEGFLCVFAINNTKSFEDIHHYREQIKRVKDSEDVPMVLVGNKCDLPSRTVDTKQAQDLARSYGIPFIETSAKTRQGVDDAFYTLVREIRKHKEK
Sequence of KRAS G12D (P62937 whole entry): as the sequence (P62937 whole entry) above
How it was run: as §2

[6] = target: KRAS G12C (Homo sapiens, UniProt P01116+P62937, G12C); test: as above; type: biochemical; details: read-out: KRAS G12C FRET data, IC50
Sequence of KRAS G12C (P01116 1-169 isoform P01116-2 G12C): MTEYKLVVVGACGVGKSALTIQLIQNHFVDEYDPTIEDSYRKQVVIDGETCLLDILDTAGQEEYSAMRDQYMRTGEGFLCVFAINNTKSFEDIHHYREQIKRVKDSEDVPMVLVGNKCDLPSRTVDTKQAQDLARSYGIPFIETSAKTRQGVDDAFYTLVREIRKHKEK
Sequence of KRAS G12C (P62937 whole entry): as the sequence (P62937 whole entry) above
How it was run: as §2

[7] = target: KRAS WT (Homo sapiens, UniProt P01116+P62937); test: as above; type: biochemical; details: KRAS WT; read-out: KRAS WT FRET data IC50
Sequence of KRAS WT (P01116 1-169 isoform P01116-2 limits assumed): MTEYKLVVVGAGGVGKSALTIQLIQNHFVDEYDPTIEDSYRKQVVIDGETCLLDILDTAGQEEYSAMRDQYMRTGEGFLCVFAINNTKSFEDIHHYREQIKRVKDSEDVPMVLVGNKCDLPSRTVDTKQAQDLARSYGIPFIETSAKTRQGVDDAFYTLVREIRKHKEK
Sequence of KRAS WT (P62937 whole entry): as the sequence (P62937 whole entry) above
How it was run: as §2

[8] = target: KRAS G12V (Homo sapiens, UniProt P01116+P62937, G12V); test: as above; type: biochemical; details: KRAS G12V; read-out: KRAS G12V FRET data IC50
Sequence of KRAS G12V (P01116 1-169 isoform P01116-2 G12V limits assumed): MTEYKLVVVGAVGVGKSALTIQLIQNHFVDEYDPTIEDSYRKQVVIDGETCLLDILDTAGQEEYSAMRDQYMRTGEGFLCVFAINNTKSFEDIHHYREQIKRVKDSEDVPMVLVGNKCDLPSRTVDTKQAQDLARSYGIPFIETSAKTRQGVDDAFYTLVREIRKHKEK
Sequence of KRAS G12V (P62937 whole entry): as the sequence (P62937 whole entry) above
How it was run: as §2

[9] = target: NRAS G12C (Homo sapiens, UniProt P01111+P62937, G12C); test: as above; type: biochemical; details: NRAS G12C; read-out: NRAS G12C FRET data IC50
Sequence of NRAS G12C (P01111 whole entry G12C): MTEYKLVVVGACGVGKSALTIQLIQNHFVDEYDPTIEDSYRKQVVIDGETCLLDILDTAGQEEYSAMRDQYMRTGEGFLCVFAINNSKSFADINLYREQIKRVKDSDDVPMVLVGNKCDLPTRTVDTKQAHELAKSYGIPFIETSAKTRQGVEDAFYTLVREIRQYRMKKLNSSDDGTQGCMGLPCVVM
Sequence of NRAS G12C (P62937 whole entry): as the sequence (P62937 whole entry) above

[10] = target: KRAS G13D (Homo sapiens, UniProt P01116+P62937, G13D); test: as above; type: biochemical; details: KRAS G13D; read-out: KRAS G13D FRET data IC50
Sequence of KRAS G13D (P01116 1-169 isoform P01116-2 G13D limits assumed): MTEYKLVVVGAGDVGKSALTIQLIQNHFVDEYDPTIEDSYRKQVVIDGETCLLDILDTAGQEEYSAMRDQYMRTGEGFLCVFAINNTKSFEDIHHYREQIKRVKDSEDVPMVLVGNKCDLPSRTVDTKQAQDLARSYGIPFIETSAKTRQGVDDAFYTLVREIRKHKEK
Sequence of KRAS G13D (P62937 whole entry): as the sequence (P62937 whole entry) above
How it was run: as §2

[11] = target: NRAS Q61R (Homo sapiens, UniProt P01111+P62937, Q61R); test: as above; type: biochemical; details: NRAS Q61R; read-out: NRAS Q61R FRET data IC50
Sequence of NRAS Q61R (P01111 whole entry Q61R): as the sequence (P01111 whole entry G12C) above, with C12G, Q61R counted along it
Sequence of NRAS Q61R (P62937 whole entry): as the sequence (P62937 whole entry) above
How it was run: (§3)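 TR-FRET in 25 mM HEPES pH 7.3, 100 mM NaCl, 5 mM MgCl2, 0.1% BSA: 25 μM Cyclophilin A, 12.5 nM His6-Ras-GMPPNP, 50 nM GST-BRAF RBD with compound (10-point 3-fold series from 30 μM), 3 h at 25° C. Anti-His Eu/anti-GST APC added, 1.5 h more; IC50 from decreased FRET ratio versus DMSO.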

[12] = target: NRAS Q61K (Homo sapiens, UniProt P01111+P62937, Q61K); test: as above; type: biochemical; details: NRAS Q61K; read-out: NRAS Q61K FRET data IC50
Sequence of NRAS Q61K (P01111 whole entry Q61K): as the sequence (P01111 whole entry G12C) above, with C12G, Q61K counted along it
Sequence of NRAS Q61K (P62937 whole entry): as the sequence (P62937 whole entry) above
How it was run: as §3

[13] = target: KRAS Q61H (Homo sapiens, UniProt P01116+P62937, Q61H); test: as above; type: biochemical; details: KRAS Q61H; read-out: KRAS Q61H FRET data IC50
Sequence of KRAS Q61H (P01116 1-169 isoform P01116-2 Q61H limits assumed): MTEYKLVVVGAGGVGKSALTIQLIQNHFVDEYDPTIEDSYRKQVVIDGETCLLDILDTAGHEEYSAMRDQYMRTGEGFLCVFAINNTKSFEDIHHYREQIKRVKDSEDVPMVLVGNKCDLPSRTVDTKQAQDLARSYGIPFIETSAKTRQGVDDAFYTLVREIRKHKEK
Sequence of KRAS Q61H (P62937 whole entry): as the sequence (P62937 whole entry) above
How it was run: as §3

[14] = target: NRAS WT (Homo sapiens, UniProt P01111+P62937); test: as above; type: biochemical; details: NRAS WT; read-out: NRAS WT FRET data IC50
Sequence of NRAS WT (P01111 whole entry): as the sequence (P01111 whole entry G12C) above, with C12G counted along it
Sequence of NRAS WT (P62937 whole entry): as the sequence (P62937 whole entry) above
How it was run: as §3

Measured: pIC50

CCn1c(-c2cc(N3CCN(C)CC3)cnc2[C@H](C)OC)c2c3cc(ccc31)-c1csc(n1)C[C@H](NC(=O)[C@H](C1CCCC1)N(C)C(=O)N(C)C)C(=O)N1CCC[C@H](N1)C(=O)OCC(C)(C)C2 (atropisomer, axis not shown) [Example A526]
> 8.00: [1] | [2]
6.00 to 7.00: [5] | [10]
7.00 to 8.00: all other assays above

CCn1c(-c2cccnc2[C@H](C)OC)c2c3cc(ccc31)-c1csc(n1)C[C@H](NC(=O)[C@H](C(C)C)N(C)C(=O)N1[C@@H](C)CN(C)C[C@@H]1C)C(=O)N1CCC[C@H](N1)C(=O)OCC(C)(C)C2 [Example A609]
6.00 to 7.00: [1] | [9] | [11] | [12] | [13]
5.00 to 6.00: all other assays above

CCn1c(-c2cccnc2[C@H](C)OC)c2c3cc(ccc31)-c1csc(n1)C[C@H](NC(=O)[C@H](C(C)C)N(C)C(=O)N1CCC[C@@H](N(C)C)C1)C(=O)N1CCC[C@H](N1)C(=O)OCC(C)(C)C2 (atropisomer, axis not shown) [Example A531]
7.00 to 8.00: [1] | [2] | [9] | [12] | [13] | [14]
6.00 to 7.00: all other assays above

CCn1c(-c2cccnc2[C@H](C)OC)c2c3cc(ccc31)-c1nc(cs1)C[C@H](NC(=O)[C@H](C(C)C)N(C)C(C)=O)C(=O)N1CCC[C@H](N1)C(=O)OCC(C)(C)C2 [Example A152]
6.00 to 7.00: [1] | [2] | [12] | [13]
5.00 to 6.00: all other assays above

CCn1c(-c2cccnc2[C@H](C)OC)c2c3cc(ccc31)-c1csc(n1)C[C@H](NC(=O)[C@H](C(C)C)N(C)C(=O)N1CC3CCN(C)CC31)C(=O)N1CCC[C@H](N1)C(=O)OCC(C)(C)C2 (stereo partly drawn) [Example A539]
6.00 to 7.00: [1] | [2] | [9]
5.00 to 6.00: all other assays above

CCn1c(-c2cccnc2[C@H](C)OC)c2c3cc(ccc31)-c1csc(n1)C[C@H](NC(=O)[C@H](C(C)C)N(C)C(=O)N1CCC3(CCN(C)CC3)C1)C(=O)N1CCC[C@H](N1)C(=O)OCC(C)(C)C2 (atropisomer, axis not shown) [Example A565]
6.00 to 7.00: [4] | [5] | [8] | [10]
7.00 to 8.00: all other assays above

From patent US20230233569A1 (Revolution Medicines, Inc., priority 2020, published 2023)
